Results taken from ChEMBL document CHEMBL1201862, “PubChem BioAssay data set” (2004).
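Cells were grown in 96-well plates and exposed to each compound for 48 hours at five concentrations; endpoints were interpolated linearly between bracketing concentrations, or set to the highest concentration if not reached. The concentration for 50% growth inhibition is given as GI50.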 Calls of active or inactive are those of the source. Rule as the data show it: active = GI50 up to about 1.1 µM and inactive = higher.

Legend:
Test in all cases: inhibition of tumour cell growth, NCI panel, 48 h
COLO 205 = tested on: COLO 205
TK-10 = tested on: TK-10
MCF7 = tested on: MCF7
A549 = tested on: A549
HCT-15 = tested on: HCT-15
Hs-578T = tested on: Hs-578T
A498 = tested on: A498
IGROV-1 = tested on: IGROV-1
RPMI-8226 = tested on: RPMI-8226
EKVX = tested on: EKVX
U-251 = tested on: U-251
SF-539 = tested on: SF-539
OVCAR-4 = tested on: OVCAR-4
CAKI-1 = tested on: CAKI-1
SK-MEL-28 = tested on: SK-MEL-28
SNB-19 = tested on: SNB-19
MDA-N = tested on: MDA-N
HCC 2998 = tested on: HCC 2998
NCI-H460 = tested on: NCI-H460
SW-620 = tested on: SW-620
OVCAR-3 = tested on: OVCAR-3
MOLT-4 = tested on: MOLT-4
DU-145 = tested on: DU-145
SF-295 = tested on: SF-295
SK-MEL-2 = tested on: SK-MEL-2
K562 = tested on: K562
M14 = tested on: M14
HCT-116 = tested on: HCT-116
PC-3 = tested on: PC-3
SN12C = tested on: SN12C
UACC-62 = tested on: UACC-62
HOP-92 = tested on: HOP-92
HT-29 = tested on: HT-29
LOX IMVI = tested on: LOX IMVI
MDA-MB-231 = tested on: MDA-MB-231
KM12 = tested on: KM12
NCI-H23 = tested on: NCI-H23
NCI-H522 = tested on: NCI-H522
SF-268 = tested on: SF-268
RXF 393 = tested on: RXF 393
Malme-3M = tested on: Malme-3M
CCRF-CEM = tested on: CCRF-CEM
SNB-75 = tested on: SNB-75
T47D = tested on: T47D
SR = tested on: SR
MDA-MB-435 = tested on: MDA-MB-435
BT-549 = tested on: BT-549
UACC-257 = tested on: UACC-257
NCI-H226 = tested on: NCI-H226
UO-31 = tested on: UO-31
HL-60 = tested on: HL-60
786-0 = tested on: 786-0
ACHN = tested on: ACHN
OVCAR-5 = tested on: OVCAR-5
SK-MEL-5 = tested on: SK-MEL-5
SK-OV-3 = tested on: SK-OV-3
OVCAR-8 = tested on: OVCAR-8
NCI/ADR-RES = tested on: NCI/ADR-RES
HOP-62 = tested on: HOP-62

Structure (SMILES): O=C(/C=C/c1ccc([N+](=O)[O-])cc1)N1CCN(CCOC(c2ccc(F)cc2)c2ccc(F)cc2)CC1
- GI50 (COLO 205): 11500 nM (inactive)
- GI50 (TK-10): > 100000 nM (inactive)
- GI50 (MCF7): 5190 nM (inactive)
- GI50 (A549): 12000 nM (inactive)
- GI50 (HCT-15): 19100 nM
- GI50 (Hs-578T): > 100000 nM (inactive)
- GI50 (A498): 16000 nM (inactive)
- GI50 (IGROV-1): 56900 nM (inactive)
- GI50 (RPMI-8226): 3780 nM (inactive)
- GI50 (EKVX): > 100000 nM (inactive)
- GI50 (U-251): > 100000 nM (inactive)
- GI50 (SF-539): 45900 nM (inactive)
- GI50 (OVCAR-4): 8750 nM (inactive)
- GI50 (CAKI-1): 18200 nM (inactive)
- GI50 (SK-MEL-28): > 100000 nM (inactive)
- GI50 (SNB-19): > 100000 nM (inactive)
- GI50 (MDA-N): 27100 nM (inactive)
- GI50 (HCC 2998): 29200 nM (inactive)
- GI50 (NCI-H460): 11300 nM (inactive)
- GI50 (SW-620): > 100000 nM (inactive)
- GI50 (OVCAR-3): > 100000 nM (inactive)
- GI50 (MOLT-4): 3600 nM (inactive)
- GI50 (DU-145): 18400 nM (inactive)
- GI50 (SF-295): 69500 nM (inactive)
- GI50 (SK-MEL-2): > 100000 nM (inactive)
- GI50 (K562): 4990 nM (inactive)
- GI50 (M14): 6350 nM (inactive)
- GI50 (HCT-116): 9640 nM (inactive)
- GI50 (PC-3): > 100000 nM (inactive)
- GI50 (SN12C): 4040 nM (inactive)
- GI50 (UACC-62): 13800 nM (inactive)
- GI50 (HOP-92): 6580 nM (inactive)
- GI50 (HT-29): 13000 nM (inactive)
- GI50 (LOX IMVI): 24600 nM (inactive)
- GI50 (MDA-MB-231): > 100000 nM (inactive)
- GI50 (KM12): 7360 nM (inactive)
- GI50 (NCI-H23): > 100000 nM (inactive)
- GI50 (NCI-H522): 63500 nM (inactive)
- GI50 (SF-268): > 100000 nM (inactive)
- GI50 (RXF 393): 9440 nM (inactive)
- GI50 (Malme-3M): > 100000 nM (inactive)
- GI50 (CCRF-CEM): 7010 nM (inactive)
- GI50 (SNB-75): 4700 nM (inactive)
- GI50 (T47D): 4740 nM (inactive)
- GI50 (SR): 7210 nM (inactive)
- GI50 (MDA-MB-435): 9840 nM (inactive)
- GI50 (BT-549): > 100000 nM (inactive)
- GI50 (UACC-257): > 100000 nM (inactive)
- GI50 (NCI-H226): > 100000 nM (inactive)
- GI50 (UO-31): 14300 nM (inactive)
- GI50 (HL-60): 9680 nM (inactive)
- GI50 (786-0): 67600 nM (inactive)
- GI50 (ACHN): 4340 nM (inactive)
- GI50 (OVCAR-5): > 100000 nM (inactive)
- GI50 (SK-MEL-5): 13900 nM (inactive)
- GI50 (SK-OV-3): > 100000 nM (inactive)
- GI50 (OVCAR-8): 8870 nM (inactive)
- GI50 (NCI/ADR-RES): 4720 nM (inactive)
- GI50 (HOP-62): > 100000 nM (inactive)

Structure (SMILES): Nc1ncnn2c(C3OC(CO)C(O)C3O)ccc12 (configuration not stated)
- GI50 (COLO 205): 188 nM (active)
- GI50 (TK-10): 214 nM (active)
- GI50 (MCF7): 164 nM (active)
- GI50 (A549): 155 nM (active)
- GI50 (HCT-15): 138 nM
- GI50 (Hs-578T): 87.5 nM (active)
- GI50 (A498): 155 nM (active)
- GI50 (IGROV-1): 210 nM (active)
- GI50 (RPMI-8226): 147 nM (active)
- GI50 (EKVX): 366 nM (active)
- GI50 (U-251): 125 nM (active)
- GI50 (SF-539): 106 nM (active)
- GI50 (OVCAR-4): 90.6 nM (active)
- GI50 (CAKI-1): 235 nM (active)
- GI50 (SK-MEL-28): 164 nM (active)
- GI50 (SNB-19): 421 nM (active)
- GI50 (MDA-N): 163 nM (active)
- GI50 (HCC 2998): 426 nM (active)
- GI50 (NCI-H460): 97 nM (active)
- GI50 (SW-620): 123 nM (active)
- GI50 (OVCAR-3): 169 nM (active)
- GI50 (MOLT-4): 153 nM (active)
- GI50 (DU-145): 230 nM (active)
- GI50 (SF-295): 323 nM (active)
- GI50 (SK-MEL-2): 148 nM (active)
- GI50 (K562): 163 nM (active)
- GI50 (M14): 83.2 nM (active)
- GI50 (HCT-116): 21.6 nM (active)
- GI50 (PC-3): 182 nM (active)
- GI50 (SN12C): 195 nM (active)
- GI50 (UACC-62): 136 nM (active)
- GI50 (HOP-92): 17.3 nM (active)
- GI50 (HT-29): 148 nM (active)
- GI50 (LOX IMVI): 20.1 nM (active)
- GI50 (MDA-MB-231): 153 nM (active)
- GI50 (KM12): 107 nM (active)
- GI50 (NCI-H23): 137 nM (active)
- GI50 (NCI-H522): 237 nM (active)
- GI50 (SF-268): 236 nM (active)
- GI50 (RXF 393): 226 nM (active)
- GI50 (Malme-3M): 69.8 nM (active)
- GI50 (CCRF-CEM): 144 nM (active)
- GI50 (SNB-75): 329 nM (active)
- GI50 (T47D): 291 nM (active)
- GI50 (SR): 36.4 nM (active)
- GI50 (MDA-MB-435): 137 nM (active)
- GI50 (BT-549): 175 nM (active)
- GI50 (UACC-257): 70.3 nM (active)
- GI50 (NCI-H226): 235 nM (active)
- GI50 (UO-31): 120 nM (active)
- GI50 (HL-60): 105 nM (active)
- GI50 (786-0): 76.6 nM (active)
- GI50 (ACHN): 170 nM (active)
- GI50 (OVCAR-5): 338 nM (active)
- GI50 (SK-MEL-5): 226 nM (active)
- GI50 (SK-OV-3): 226 nM (active)
- GI50 (OVCAR-8): 99.1 nM (active)
- GI50 (NCI/ADR-RES): 237 nM (active)
- GI50 (HOP-62): 261 nM (active)

Structure (SMILES): COc1ccc(CCNC2=CC(=O)c3ncccc3C2=O)cc1OC
- GI50 (COLO 205): 1790 nM (inactive)
- GI50 (TK-10): 24300 nM (inactive)
- GI50 (MCF7): 1380 nM (inactive)
- GI50 (A549): 918 nM (active)
- GI50 (HCT-15): 918 nM
- GI50 (Hs-578T): 1190 nM (inactive)
- GI50 (A498): 1820 nM (inactive)
- GI50 (IGROV-1): 1550 nM (inactive)
- GI50 (RPMI-8226): 5570 nM (inactive)
- GI50 (EKVX): 5500 nM (inactive)
- GI50 (U-251): 863 nM (active)
- GI50 (SF-539): 2070 nM (inactive)
- GI50 (OVCAR-4): 2470 nM (inactive)
- GI50 (CAKI-1): 1710 nM (inactive)
- GI50 (SK-MEL-28): 1470 nM (inactive)
- GI50 (SNB-19): 1860 nM (inactive)
- GI50 (MDA-N): 1180 nM (inactive)
- GI50 (HCC 2998): 1940 nM (inactive)
- GI50 (NCI-H460): 394 nM (active)
- GI50 (SW-620): 1680 nM (inactive)
- GI50 (OVCAR-3): 514 nM (active)
- GI50 (MOLT-4): 5050 nM (inactive)
- GI50 (DU-145): 1670 nM (inactive)
- GI50 (SF-295): 794 nM (active)
- GI50 (SK-MEL-2): 1480 nM (inactive)
- GI50 (K562): 2240 nM (inactive)
- GI50 (M14): 1150 nM (inactive)
- GI50 (HCT-116): 2510 nM (inactive)
- GI50 (PC-3): 2540 nM (inactive)
- GI50 (SN12C): 973 nM (active)
- GI50 (UACC-62): 435 nM (active)
- GI50 (HOP-92): 8950 nM (inactive)
- GI50 (HT-29): 2120 nM (inactive)
- GI50 (LOX IMVI): 426 nM (active)
- GI50 (MDA-MB-231): 789 nM (active)
- GI50 (KM12): 3590 nM (inactive)
- GI50 (NCI-H23): 346 nM (active)
- GI50 (NCI-H522): 2110 nM (inactive)
- GI50 (SF-268): 5180 nM (inactive)
- GI50 (RXF 393): 3900 nM (inactive)
- GI50 (Malme-3M): 682 nM (active)
- GI50 (CCRF-CEM): 5900 nM (inactive)
- GI50 (SNB-75): 748 nM (active)
- GI50 (T47D): 5090 nM (inactive)
- GI50 (SR): 4240 nM (inactive)
- GI50 (MDA-MB-435): 471 nM (active)
- GI50 (BT-549): 1300 nM (inactive)
- GI50 (UACC-257): 1190 nM (inactive)
- GI50 (NCI-H226): 1420 nM (inactive)
- GI50 (UO-31): 931 nM (active)
- GI50 (HL-60): 2820 nM (inactive)
- GI50 (786-0): 3310 nM (inactive)
- GI50 (ACHN): 3670 nM (inactive)
- GI50 (OVCAR-5): 2700 nM (inactive)
- GI50 (SK-MEL-5): 184 nM (active)
- GI50 (SK-OV-3): 10200 nM (inactive)
- GI50 (OVCAR-8): 2540 nM (inactive)
- GI50 (NCI/ADR-RES): 2280 nM (inactive)
- GI50 (HOP-62): 1890 nM (inactive)
